One test deals with THP-1 cells. The test can be described thus: Measurement of IL-1β production, hTRF protocol (second alternative procedure), THP-1 cells. The format is cell-based, human. Conditions: human, read-out: NLRP3 hILIB EC50. The procedure:
Measurement of IL-1β Production—hTRF Protocol (Second Alternative Procedure)
Serial dilutions of compounds in DMSO were added to low volume 384 well plates at 100 nl/well using an ECHO 550 acoustic dispenser (Labcyte) to achieve final starting concentration of 10 μM in assay.
THP-1 cells in RPMI (Gibco, 11875) media with 10% FBS at a density of 1×10^6 cell/ml in a T175 flask were treated with a final concentration of phorbol 12-myristate 13-acetate (PMA) (Sigma, P1585) of 50 ng/ml overnight at 37° C. at 5% CO2 for differentiation. Cells were harvested the next day after rinsing well with dPBS using 0.5% trypsin. A cell solution was prepared of 1×10^6 cells/ml for 50,000 cells in 50 μl/well in RPMI media with 2% FBS. Cells were plated using a multichannel pipette onto the compound dilutions in Greiner, 384 well, black clear bottom tissue culture treated plates (781090). The plates were incubated in 37° C. incubator at 5% CO2 for 2 hours.
After the 2 hour incubation, the cell plates were spun in the centrifuge for 5 minutes at 1200 rpm. Using the Felix (CyBio), 8 μl of the supernatant was transferred to 384 well, low volume, white proxy plates. (Perkin Elmer, 6008230). A human IL1beta hTRF kit was used to analyze the supernatant (CISBIO, 62HIL1BPEG). The kit instructions were followed for preparing the IL1Beta standard curve and then the antibodies from the kit were diluted 1:40 rather than 1:20 as kit instructed. Once combined, the antibodies were added across the plates, 5 μl/well. The plates were sealed and incubated at 4° C. overnight. The plates were then read on the Perkin Elmer EnVision at 665/615 nm using the hTRF laser.

For a further test, the target named is T1, TLR7 (Homo sapiens, UniProt Q9NYK1).
T1 construct: human HEK-Blue cells co-expressing a TLR7 or TLR8 gene
T1 sequence (Q9NYK1 27-1049): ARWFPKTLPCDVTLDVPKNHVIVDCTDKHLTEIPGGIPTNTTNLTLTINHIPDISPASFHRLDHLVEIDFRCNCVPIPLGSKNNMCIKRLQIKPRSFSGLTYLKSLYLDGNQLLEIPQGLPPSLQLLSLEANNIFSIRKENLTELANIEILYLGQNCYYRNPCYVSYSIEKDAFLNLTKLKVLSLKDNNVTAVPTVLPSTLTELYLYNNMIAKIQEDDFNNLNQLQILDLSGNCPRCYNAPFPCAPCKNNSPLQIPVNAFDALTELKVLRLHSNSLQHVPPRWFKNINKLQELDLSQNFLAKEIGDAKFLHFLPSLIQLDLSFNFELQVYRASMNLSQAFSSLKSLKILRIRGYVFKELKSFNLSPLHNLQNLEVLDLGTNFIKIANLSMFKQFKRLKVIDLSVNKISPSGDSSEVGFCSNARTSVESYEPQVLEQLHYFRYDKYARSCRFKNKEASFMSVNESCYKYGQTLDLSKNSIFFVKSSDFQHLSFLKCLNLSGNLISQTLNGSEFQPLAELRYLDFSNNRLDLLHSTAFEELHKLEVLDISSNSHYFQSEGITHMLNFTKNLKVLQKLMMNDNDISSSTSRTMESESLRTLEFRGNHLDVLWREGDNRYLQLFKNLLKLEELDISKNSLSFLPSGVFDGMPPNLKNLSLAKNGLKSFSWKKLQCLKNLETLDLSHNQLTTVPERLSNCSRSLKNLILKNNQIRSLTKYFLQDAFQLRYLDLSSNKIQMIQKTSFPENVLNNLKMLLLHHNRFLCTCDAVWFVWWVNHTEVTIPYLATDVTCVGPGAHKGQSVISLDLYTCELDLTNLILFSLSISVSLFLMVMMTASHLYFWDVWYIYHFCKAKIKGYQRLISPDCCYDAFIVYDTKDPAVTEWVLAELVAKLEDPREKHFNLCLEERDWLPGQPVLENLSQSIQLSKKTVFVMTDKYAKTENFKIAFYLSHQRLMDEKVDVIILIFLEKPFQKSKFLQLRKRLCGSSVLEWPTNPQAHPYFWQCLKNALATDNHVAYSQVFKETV
As to the kind of experiment: In vitro human TLR7 binding reporter assay (HEK-Blue, NF-kB/AP1-inducible SEAP). The format is cell-based. Conditions: activity range class, read-out: TLR7 Agonist EC50. The procedure: (§1) In Vitro Human TLR7 and TLR8 Binding Reporter Assays
(§2) Logarithmically-growing human HEK-Blue cells co-expressing a TLR7 or TLR8 gene and a NF-kB/AP1-inducible SEAP (secreted embryonic alkaline phosphatase; Invivogen, San Diego, CA) reporter gene are added to individual wells of a 384-well plate (15,000 cells per 20 μL per well) and maintained for 24 h at 37° C., 5% CO2. Test compounds or DMSO are distributed to separate wells the next day using acoustic liquid handling technology (100 nL per well) and cells are subsequently incubated for 18 h at 37° C., 5% CO2. Cellular SEAP production is measured using an Envision plate reader instrument thirty minutes after adding freshly-made Quanti-Blue reagent (prepared by following manufacturer instructions; Invivogen, San Diego, CA) to the HEK-Blue TLR Nf-kB-SEAP cell reactions. All EC50 values (half-maximal effective concentration) are determined using proprietary data analysis software. Normalized EC50 value=absolute value determined by setting 100% Ymax using a reference standard RLU (relative light unit) values from cells treated with 50 μM of the reference standard.
(In a reporter assay the amount or activity of a reporter protein is the signal.)

The target in the next test is T2, TLR8 (Homo sapiens, UniProt Q9NR97).
T2 construct: human HEK-Blue cells co-expressing a TLR7 or TLR8 gene
T2 sequence (Q9NR97 27-1041): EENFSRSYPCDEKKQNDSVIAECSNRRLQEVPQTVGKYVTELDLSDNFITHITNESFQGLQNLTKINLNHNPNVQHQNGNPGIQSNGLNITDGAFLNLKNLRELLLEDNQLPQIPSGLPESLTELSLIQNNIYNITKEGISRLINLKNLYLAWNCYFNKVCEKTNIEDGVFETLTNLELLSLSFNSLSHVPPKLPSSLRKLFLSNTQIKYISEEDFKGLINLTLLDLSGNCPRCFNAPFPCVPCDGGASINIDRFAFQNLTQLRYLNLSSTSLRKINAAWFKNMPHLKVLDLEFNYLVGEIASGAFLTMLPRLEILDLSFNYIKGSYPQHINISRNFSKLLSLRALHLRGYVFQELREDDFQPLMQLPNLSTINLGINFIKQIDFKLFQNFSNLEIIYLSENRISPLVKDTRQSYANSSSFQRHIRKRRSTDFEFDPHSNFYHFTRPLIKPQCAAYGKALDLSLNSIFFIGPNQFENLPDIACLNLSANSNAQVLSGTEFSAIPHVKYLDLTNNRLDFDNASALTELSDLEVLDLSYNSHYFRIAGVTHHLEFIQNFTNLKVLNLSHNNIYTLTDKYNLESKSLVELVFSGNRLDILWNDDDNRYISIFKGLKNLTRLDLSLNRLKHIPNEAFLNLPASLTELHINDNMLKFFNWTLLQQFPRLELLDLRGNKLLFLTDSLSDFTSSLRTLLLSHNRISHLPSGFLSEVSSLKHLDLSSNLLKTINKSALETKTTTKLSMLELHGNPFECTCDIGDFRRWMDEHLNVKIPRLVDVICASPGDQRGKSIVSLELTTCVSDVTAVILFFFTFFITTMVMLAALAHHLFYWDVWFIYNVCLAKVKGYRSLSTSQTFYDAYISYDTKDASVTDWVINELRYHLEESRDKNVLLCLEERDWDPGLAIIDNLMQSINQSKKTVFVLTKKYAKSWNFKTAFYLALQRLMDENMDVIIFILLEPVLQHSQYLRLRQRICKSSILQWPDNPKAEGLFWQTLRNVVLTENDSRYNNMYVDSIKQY
The test can be described thus: In vitro human TLR8 binding reporter assay (HEK-Blue, NF-kB/AP1-inducible SEAP). The format is cell-based. Particulars: activity range class, read-out: TLR8 Agonist EC50. The procedure: as §1, §2

Where [1] appears, read: Homo sapiens, THP-1, IL-1β production.

pEC50: −log10 of the molar value. Like-named read-outs stand apart in the source and are kept apart here.

By pEC50 is commonly meant −log10 of the EC50, conventionally taken in molar units. Turning to `Nc1nc2cc(-c3cc[nH]n3)ccc2c2nn(C3CCOC3)cc12` (racemic) [Example 237], the pEC50 in the test on THP-1 cells (setting [1]) was 7.05; on TLR7 it was below 4.00; at TLR8, below 4.00.

Consider `Nc1nc2cc(-c3cc[nH]n3)ccc2c2nn([C@@H]3CC[C@H](O)C3)cc12` (relative stereo) [Example 210, cis-3-(4-amino-7-(1H-pyrazol-3-yl)-2H-pyrazolo[4,3-c]quinolin-2-yl)cyclopentan-1-ol], for which the values for the pEC50 in the test on THP-1 cells (setting [1]), on TLR7 and on TLR8 were 6.48, below 4.00 and below 4.00, respectively.

For `CN1CCOC(C(=O)NCCn2cc3c(n2)c(N)nc2cc(-c4cc[nH]n4)ccc23)C1` (single isomer, unassigned) [Example 179], the pEC50 with THP-1 cells (setting [1]) was 4.59; at TLR7, below 4.00; on TLR8, below 4.00.

As for `CN1CCOC(C(=O)NCCn2cc3c(n2)c(N)nc2cc(-c4cc[nH]n4)ccc23)C1` (single isomer, unassigned) [Example 180], the negative logarithm of the EC50 (pEC50) with THP-1 cells (IL-1β production) is 4.44; at TLR7, below 4.00; at TLR8 it was below 4.00.

Regarding `Nc1nc2cc(-c3cc[nH]n3)ccc2c2nn(C3CCOC3)cc12` (single isomer, unassigned) [Example 238], the pEC50 in the test with THP-1 cells (IL-1β production) is 6.14; at TLR7, below 4.00; at TLR8, below 4.00.

On to `Nc1nc2cc(-c3cc[nH]n3)ccc2c2nn(C3CCOC3)cc12` (single isomer, unassigned) [Example 239], for which the pEC50 with THP-1 cells (IL-1β production) was 6.68; on TLR7 it was below 4.00; on TLR8, below 4.00.

In the case of `CC(CCO)n1cc2c(N)nc3cc(-c4cc[nH]n4)ccc3c2n1` (single isomer, unassigned) [Example 287, 3-(4-amino-7-(1H-pyrazol-3-yl)-2H-pyrazolo[4,3-c]quinolin-2-yl)butan-1-ol], the negative logarithm of the EC50 (pEC50) with THP-1 cells (setting [1]) was 6.59; at TLR7, below 4.00; on TLR8 it was below 4.00.

As for `CC(CCO)n1cc2c(N)nc3cc(-c4cc[nH]n4)ccc3c2n1` (single isomer, unassigned) [Example 288, 3-(4-amino-7-(1H-pyrazol-3-yl)-2H-pyrazolo[4,3-c]quinolin-2-yl)butan-1-ol], the pEC50 with THP-1 cells (IL-1β production) was 6.35; at TLR7, below 4.00; at TLR8, below 4.00.

As for `CC(=O)NC(C)Cn1cc2c(N)nc3cc(-c4ccn[nH]4)ccc3c2n1` (single isomer, unassigned) [Example 299], the negative-log EC50 (pEC50) in the test with THP-1 cells (IL-1β production) was 5.53; on TLR7, below 4.00; on TLR8, below 4.00.

Turning to `CC(=O)NC(C)Cn1cc2c(N)nc3cc(-c4ccn[nH]4)ccc3c2n1` (single isomer, unassigned) [Example 300], the figures for the negative-log EC50 (pEC50) in the test on THP-1 cells (IL-1β production), on TLR7 and at TLR8 were 5.13, below 4.00 and below 4.00, respectively.

On to `Nc1nc2cc(-c3cc[nH]n3)ccc2c2nn(C3CCCC3O)cc12` (single isomer, unassigned) [Example 314], for which the values for the pEC50 with THP-1 cells (setting [1]), on TLR7 and on TLR8 were 6.31, below 4.00 and below 4.00, respectively.

For the compound `Nc1nc2cc(-c3cc[nH]n3)ccc2c2nn(C3CCCC3O)cc12` (single isomer, unassigned) [Example 315], the negative-log EC50 (pEC50) in the test with THP-1 cells (IL-1β production) is 6.05; at TLR7, below 4.00; at TLR8 it was below 4.00.

Turning to `Nc1nc2cc(-c3cc[nH]n3)ccc2c2nn(C3CCCC3O)cc12` (single isomer, unassigned) [Example 316], the pEC50 is 6.05 in the test with THP-1 cells (IL-1β production), below 4.00 on TLR7 and below 4.00 on TLR8.

Regarding `Nc1nc2cc(-c3cc[nH]n3)ccc2c2nn(C3CCCCC3O)cc12` (single isomer, unassigned) [Example 318], the values for the pEC50 with THP-1 cells (IL-1β production), at TLR7 and on TLR8 were 5.51, below 4.00 and below 4.00, respectively.

`Nc1nc2cc(-c3cc[nH]n3)ccc2c2nn(C3CCCCC3O)cc12` (single isomer, unassigned) [Example 319]: the figures for the negative logarithm of the EC50 (pEC50) in the test on THP-1 cells (IL-1β production), at TLR7 and on TLR8 were 5.95, below 4.00 and below 4.00, respectively.

With `Nc1nc2cc(-c3ccn[nH]3)ccc2c2oc(CCCOCc3ccccc3)nc12` [Example 146, 2-[3-(benzyloxy)propyl]-7-(1H-pyrazol-3-yl)-[1,3]oxazolo[4,5-c]quinolin-4-amine], in the test with THP-1 cells (setting [1]), the pEC50 was 5.10.

For `Nc1nc2cc(-c3cc[nH]n3)ccc2c2cc(CCCO)oc12` [Example 148, 3-[4-amino-7-(1H-pyrazol-3-yl)furo[2,3-c]quinolin-2-yl]propan-1-ol], the pEC50 in the test with THP-1 cells (setting [1]) was 5.69.

With `NCCc1cc2c(N)nc3cc(-c4ccn[nH]4)ccc3c2[nH]1` [Example 152, 2-(2-aminoethyl)-7-(1H-pyrazol-5-yl)-1H-pyrrolo[3,2-c]quinolin-4-amine], in the test on THP-1 cells (setting [1]), the pEC50 is 5.42.

As for `Nc1nc2cc(-n3cccn3)ccc2c2cn(CCNC(=O)c3ccc(F)cn3)nc12` [Example 184], the pEC50 is 7.00 in the test with THP-1 cells (setting [1]) and below 4.00 on TLR7.

Source of the values: patent publication US12037344B2, “NLRP3 modulators” (INNATE TUMOR IMMUNITY, INC., priority 2018, dated 2024).
